{"source": "patent US11331333B2", "about": "“Treatment of aberrant fibroblast proliferation” (Georg August Universitaet Goettingen Stiftung Oeffentlichen …, priority 2019, dated 2022)", "key": {"[1]": {"tested_on": "human TK173 and TZ1 cultures", "assay": "DNA damage response foci and NHEJ/HR reporters after NCS exposure in human fibroblast cultures", "type": "cell-based", "source_text": "FIGS. 20A to D depict average foci per nucleus detected in human TK173 and TZ1 cultures transfected with EYA1Δe10-ASO and labelled for γH2A.X^pS139 (FIG. 20A), γH2A.X^pS139/γH2A.X^py142 (FIG. 20B), γH2A.X^pS139/53Bp1 (FIG. 20C), and γH2A.X^pS139/Rpa1 (FIG. 20D) at indicated time points after NCS exposure (n=100 nuclei each, data are presented as means±s.d.). FIGS. 20E and F depict data on the analysis of NHEJ and HR events […] (NHEJ, FIG. 20E) and pDR-GFP (HR, FIG. 20F) reporter plasmids (n=3 independent replicates, data are presented as means±s.d., **p<0.01, ***p<0.001, values of p were calculated using Student's t test comparing indicated groups). FIG. 20G depicts proliferative activity of human kidney fibroblasts at indicated time points after seeding at a density of 60,000 per well (n=3 independent replicates, data are presented as means s.d., and *p<0.05, values of p were calculated using Student's t test comparing EYA1Δe10-ASO-transfected TZ1 with untreated TZ1 cultures). FIG. 20H depicts an analysis of p-Chk1^pS317 and p-Chk2^PT68 by SDS-PAGE and subsequent immunoblotting 24 hours after NCS exposure. […]"}, "[2]": {"tested_on": "DNA damage checkpoint activation", "assay": "Immunoblotting of p-Chk1^pS317 and p-Chk2^pT68 after NCS exposure", "type": "cell-based, human", "conditions": "24 hours after NCS exposure", "source_text": "FIGS. 20A to D depict average foci per nucleus detected in human TK173 and TZ1 cultures transfected with EYA1Δe10-ASO and labelled for γH2A.X^pS139 (FIG. 20A), γH2A.X^pS139/γH2A.X^py142 (FIG. 20B), γH2A.X^pS139/53Bp1 (FIG. 20C), and γH2A.X^pS139/Rpa1 (FIG. 20D) at indicated time points after NCS exposure (n=100 nuclei each, data are presented as means±s.d.). FIGS. 20E and F depict data on the analysis of NHEJ and HR events […] (NHEJ, FIG. 20E) and pDR-GFP (HR, FIG. 20F) reporter plasmids (n=3 independent replicates, data are presented as means±s.d., **p<0.01, ***p<0.001, values of p were calculated using Student's t test comparing indicated groups). FIG. 20G depicts proliferative activity of human kidney fibroblasts at indicated time points after seeding at a density of 60,000 per well (n=3 independent replicates, data are presented as means s.d., and *p<0.05, values of p were calculated using Student's t test comparing EYA1Δe10-ASO-transfected TZ1 with untreated TZ1 cultures). FIG. 20H depicts an analysis of p-Chk1^pS317 and p-Chk2^PT68 by SDS-PAGE and subsequent immunoblotting 24 hours after NCS exposure.\nTissue and cells were homogenized in NP40 lysis buffer (Life technologies, Carlsbad, USA) supplemented with protease inhibitor cocktail (Roche, Basel, Switzerland). […]"}}}
{"substance": "EYA1Δe10-ASO: oligonucleotides targeting intron 9-10/exon 10 (SEQ ID NO: 5) and exon 10/intron 10-11 (SEQ ID NO: 4) splice junctions (antisense 1 CCTTGGACTGCGAATG; antisense 2 TTTCAACTTGGCAGTA; listed as DNA, chemistry not given here)", "values": [{"measurement": "premature γH2A.X^pY14 dephosphorylation", "setting": "[1]; TZ1, after NCS exposure", "value": "normalization"}, {"measurement": "HR DDR", "setting": "[1]; TZ1, pDR-GFP reporter, Rpa1 foci", "value": "increased HR DDR"}, {"measurement": "DNA damage checkpoint activation", "setting": "[2]", "value": "normalized DNA damage checkpoint activation"}]}
